Data published in publication PMC11912122, “Gut in Tube—Continuous Measurement of Metabolic Crosstalk between Cell Populations in Heterogeneous Samples by NMR Imaging” (Analytical Chemistry, 2025).
Square brackets hold non-standard residues; d marks the D form. Peptide text beside a SMILES is read from it. Phe(4-F) = N[C@@H](Cc1ccc(F)cc1)C(=O)O

System: Cocultures of colonocytes (Caco-2, HT29, T84, SW620)
Assay: Cell viability assay (MTT)
Assay type: cell-based, human
Details: peptide 1.6 mg/mL, 37 °C, 3 h, OD590, % viability vs control, n=3
Procedure: Individual cell lines (Caco-2, HT29, T84, and SW620) were grown from frozen stocks, prepared at ca. 1 million/mL. Cells were seeded in a T-75 tissue culture flask, passaged once, and matured to ca. 10 million/mL in a T-175 flask in complete media. Cells were rinsed twice with Ca^2+/Mg^2+-free PBS (25 mL, CAS D8537), trypsinized, the trypsin deactivated with P/S-free complete media, all four lineages mixed in a 1:1:1:1 ratio, pelleted (300 rcf, 5 min), and resuspended in alginate (sodium alginate, CAS 9005–38–3, 1% w/v in P/S-free complete media). The cell suspension was extruded through a 200 μL pipet tip dropwise into cold CaCl2 (0.3 M in phosphate-buffered saline, PBS, CAS D8662, 15 °C) under stirring (100 r.p.m.). The cell spheres (Figures S1 and S2, Supporting Information (SI)) were removed from the CaCl2 solution, washed, and stored in P/S-free complete media before further use.
The effect of the peptide on cell viability was measured using a cell proliferation kit (CAS 11465007001). 3-[4,5-Dimethylthiazole-2-yl]-2,5-diphenyltetrazolium bromide (MTT) was solubilized in PBS (5 mg/mL) and filter-sterilized (0.22-μm). Cocultures of colonocytes were grown in phenol red-free complete media in 24-well plates to ca. 50% confluency. […] The absorbance (OD590) in each well was read, and % viability was calculated against the control (Figure S6, SI).

## C[C@H](NC(=O)[C@@H](N)Cc1ccc(F)cc1)C(=O)N[C@@H](Cc1c[nH]cn1)C(=O)N[C@@H](Cc1c[nH]c2ccccc12)C(N)=O [p-F-Phe-Ala-His-Trp] (H-[Phe(4-F)]AHW-NH2)
  effect on colonocyte viability: no significant (p > 0.05) effect and ns
